Results from patent US20060178342A1, “Hyaluronan as a cytotoxic agent, drug pre-sensitizer and chemo-sensitizer in the treatment of disease” (priority 2001, published 2006).
Where a name gives a salt, the structure may show the parent alone.

How the values were obtained:
[1] = 6-week study: treatment toxicity (body mass, blood, organ mass, survival); details: 30 mg/kg 5-FU
[2] = test system: HCT-116; assay: Drug cytotoxicity assay, Camptosar ± 100 nM hyaluronan; assay type: cell-based; details: Homo sapiens, 48 hours continuous exposure, HyCAMP = Camptosar + 100 nM hyaluronan
Description: (§1) Human Colon Carcinoma Cell Lines HT-29, HCT-116, SK-CO-1, SW620, SW1222 were obtained from the Peter MacCallum, Cancer Institute, Melbourne. […] Human colon carcinoma cell lines 1215 and LIM2099 were kindly donated by Dr R Whitehead, Ludwig Institute, Melbourne. […] The various concentrations of Camptosar were achieved by diluting in the appropriate amount of growth media The HCT-116, HT-29, SK-CO-1, LIM1215, LIM2099, SW620 and SW1222 cell lines were routinely grown to 80% confluency. The cells were removed from the culture flask and counted using the haematocytometer. The cells HT-29, HCT-116, SK-CO-1, SW620 and SW1222 were resuspended to 15,000 cells/ml of cell-specific media. The LIM1215 and LIM2099 were resuspended to 30,000 cells/ml of cell-specific media. The cells were plated into 48 well culture plates (1 cm^2 surface area) by adding 1 ml of cell suspension per well. The cells were allowed to attach overnight prior to exposure to the test media. The cells were continuously exposed to the following concentrations of test media: 0 μg/ml, 0.25 μg/ml, 0.5 μg/ml, 1 μg/ml, 5 μg/ml, 25 μg/ml and 50 μg/ml Camptosar±100 nM hyaluronan (Modal Mw 850,000). The cells were continuously incubated with the test media for 48 hours. On the day of analysis, the cells were washed with Hanks Balanced Salt Solution. Subsequently, the cells were removed by trypsinization with 0.25% trypsin/EDTA. An aliquot of the trypsinized cell suspension was counted by the Coulter Counter. The raw duplicate or triplicate counts per well were obtained from the Z2 coulter counter. The counts will be averaged and will be expressed as percentage of no drug control.

[3] = test system: HT-29; assay: as above; assay type: cell-based; details: Homo sapiens, 48 hours continuous exposure, HyCAMP = Camptosar + 100 nM hyaluronan
Description: as §1

[4] = test system: LIM 1215; assay: as above; assay type: cell-based; details: Homo sapiens, LIM1215; 48 hours continuous exposure; HyCAMP = Camptosar + 100 nM hyaluronan
Description: as §1

[5] = test system: LIM 2099; assay: as above; assay type: cell-based; details: Homo sapiens; 48 hours continuous exposure; HyCAMP = Camptosar + 100 nM hyaluronan
Description: as §1

[6] = test system: SK-CO-1; assay: as above; assay type: cell-based; details: Homo sapiens, 48 hours continuous exposure, HyCAMP = Camptosar + 100 nM hyaluronan
Description: as §1

[7] = test system: SW 620; assay: as above; assay type: cell-based; details: Homo sapiens, 48 hours continuous exposure, HyCAMP = Camptosar + 100 nM hyaluronan
Description: as §1

[8] = test system: SW1222; assay: as above; assay type: cell-based; details: Homo sapiens, 48 hours continuous exposure, HyCAMP = Camptosar + 100 nM hyaluronan
Description: as §1

[9] = test system: Human LIM1215 colon cancer xenografts; assay: 14-week efficacy study, irinotecan ± HA in colon cancer xenografts; assay type: in vivo, mouse; details: 50 mg/kg weekly; listed as irinotecan, hydrochloride
Description: Human LIM1215 colon cancer xenografts were inoculated into the mammary fat pad of athymic […] nude mice. Mice were randomly distributed into eight treatment groups (8 mice per group).
The treatment regime comprised of injections on Day 1 of a 7-day cycle for duration of fourteen weeks. Primary tumor volume, animal body mass, energy levels and food consumption were monitored three times weekly.
Athymic CBA/WEHI nude female mice (Walter and Eliza Hall Research Institute, Melbourne, Australia), 6 to 8 weeks old, were maintained under specific pathogen-free conditions, with sterilized food and water available ad libitum. Each mouse received one injection containing 1×10^7 cells in 50-100 μl. […]
Any animals with a tumor volume expressed as a percentage of body weight outside 0.25±0.10 (mean±1 SD) were excluded from data analysis. […]
The experimental end-point for each animal occurred either when the animal had to be euthanized due to a high degree of disease progression or when the 14-week study had been completed. The animals were monitored three times weekly and the following criteria were established to determine whether an animal had reached the experimental end point: tumour mass is greater than 10% of the animals total body mass; the animal is metabolically stressed (i.e. losing weight); or the animal is immobilized.

[10] = 14-week study: treatment toxicity and weight; details: 50 mg/kg weekly
[11] = In vivo toxicology, daily iv Camptosar or HyCAMP; details: for immediate neurological toxicity, early or late on-set diarrhea: Camptosar or HyCAMP; for LD50: iv
[12] = test system: human breast cancer cells; assay: Breast cancer cell count assay, cell line not specified or pooled; assay type: cell-based; details: Homo sapiens; cell line not stated; read-out: IC50 of adriamycin
Experimental: The cell suspensions were counted with an automated cell counter (ZM-2 Coulter Counter) by adding 15 mL saline+0.2 ml of cell suspension. • Cells were resuspended to a number of: […] The cell suspensions were counted with an automated cell counter (ZM-2 Coulter Counter) by adding 15 mL saline+0.2 ml of cell suspension. Results were expressed as % of no drug control which was calculated as: […]

[13] = substance implied by list of adriamycin groups; cited from earlier work

**Q.** With O=c1[nH]cc(F)c(=O)[nH]1 [5-FU, 5-fluorouracil, reference compound] as the molecule, how does the “shrinkage of the uterus” value [1] read?
**A.** 22%

**Q.** What about the “enlarged spleen, increase in mass” value ([1]; vs saline group) of the same molecule?
**A.** 61%

**Q.** For CCc1c2c(nc3ccc(OC(=O)N4CCC(N5CCCCC5)CC4)cc13)-c1cc3c(c(=O)n1C2)COC(=O)[C@]3(O)CC [Camptosar, irinotecan hydrochloride], which IC50 [2] is on record?
**A.** 1500 nM

**Q.** And the IC50 [3]?
**A.** 16 µM

**Q.** What about the IC50 [4] of the same molecule?
**A.** 16 µM

**Q.** And the IC50 [5]?
**A.** 31 µM

**Q.** What about the IC50 [6] of the same molecule?
**A.** 5 µM

**Q.** And the IC50 [7]?
**A.** 10 µM

**Q.** And the IC50 [8]?
**A.** 32 µM

**Q.** What about the “population survival to the end of the 14-week study” value [9] of the same molecule?
**A.** approximately 57%

**Q.** What about the “degree of observed weight loss, irinotecan vs HyCAMP groups” value [10] of the same molecule?
**A.** comparable

**Q.** And the “accumulative dose received without severe adverse effects” value ([11]; 25 mg/kg daily iv)?
**A.** 350 mg/kg

**Q.** And the “body weight lost compared to HyCAMP group” value ([11]; 25 mg/kg daily iv)?
**A.** 18%

**Q.** And the survival time ([11]; 25 mg/kg daily iv (HyCAMP: + 13.3 mg/kg HA))?
**A.** 14 days

**Q.** And the “immediate neurological toxicity, early or late on-set diarrhea” value ([11]; 25 mg/kg daily iv)?
**A.** did not exhibit any immediate neurological toxicity, early or late on-set diarrhea

**Q.** And the survival time ([11]; 50 mg/kg daily iv)?
**A.** ≤ 12 days

**Q.** What about the “immediate neurological toxicity, early or late on-set diarrhea” value ([11]; 50 mg/kg daily iv) of the same molecule?
**A.** did not exhibit any immediate neurological toxicity, early or late on-set diarrhea

**Q.** And the diarrhea grade ([11]; 100 mg/kg daily iv)?
**A.** 2-3 Grade

**Q.** And the survival time ([11]; 100 mg/kg daily iv)?
**A.** ≤ 7 days

**Q.** What about the “onset of neurological effects after injection” value (“onset of neurological effects” below) ([11]; 100 mg/kg iv) of the same molecule?
**A.** 30 seconds

**Q.** And the “time to fully recuperate from neurological effects” value ([11]; 100 mg/kg iv)?
**A.** 5 h

**Q.** What about the “onset of neurological effects” value ([11]; 150 mg/kg iv) of the same molecule?
**A.** 30 seconds

**Q.** What about the “recuperation from neurological effects” value ([11]; 150 mg/kg iv) of the same molecule?
**A.** did not recuperate

**Q.** And the “onset of neurological effects” value ([11]; 200 mg/kg iv)?
**A.** 30 seconds

**Q.** What about the “recuperation from neurological effects” value ([11]; 200 mg/kg iv) of the same molecule?
**A.** did not recuperate

**Q.** And the “organ mass compared to HyCAMP treatment group” value ([11]; 50-100 mg/kg)?
**A.** significant increase in the mass of the stomach, lungs, spleen and brain

**Q.** And the LD50 at 14 days ([11]; male, F1 CBAXC57 (out-bred), mouse, in vivo, intravenous)?
**A.** 475 to 550 mg/kg

**Q.** And the LD50 ([11]; male, F1 CBAXC57 (out-bred), mouse, in vivo, 50 mg/kg)?
**A.** 475 mg/kg

**Q.** And the LD50 ([11]; male, F1 CBAXC57 (out-bred), mouse, in vivo, 100 mg/kg)?
**A.** 550 mg/kg

**Q.** What about the lethal dose ([11]; single bolus iv) of the same molecule?
**A.** > 100 mg/kg

**Q.** Which IC50 [12] does the source give for COc1cccc2c1C(=O)c1c(O)c3c(c(O)c1C2=O)C[C@@](O)(C(=O)CO)C[C@@H]3O[C@H]1C[C@H](N)[C@H](O)[C@H](C)O1 [adriamycin, doxorubicin, reference compound] here?
**A.** 90 nM

**Q.** And the “Mouse LD50” value [13]?
**A.** 10 mg/kg
